Measurements taken from patent US12479816B2, “20-HETE formation inhibitors” (UNIVERSITY OF PITTSBURGH—OF THE COMMONWEALTH SYSTEM OF …, priority 2019, dated 2025).

How the values were obtained:
[1] = biological target: formation of EETs and DiHETs (epoxygenase activity) in HLM; test: Selectivity: inhibition of EETs and DiHETs formation (epoxygenase activity) in HLM; assay type: biochemical, human; settings: for IC50: sum of EETs and DiHETs
Description: Selectivity of compounds for inhibition of 20-HETE formation vs inhibition of formation of 8,9-, 11,12-, 14,15-EET and 5,6-, 8,9-, 11,12-, 14,15-DiHETs was assessed via the simultaneous monitor of formation of 20-HETE and those metabolites under the UPLC-MS/MS assay conditions described above using HLM incubations and the same 12 test compound concentrations (0.1 nM-[…]) used for the IC50 determination experiments. At each of the 12 concentrations, the selectivity of 20-HETE inhibition over the other metabolites was compared. Epoxygenase activity was assessed by the sum of EETs and DiHETEs as percentage of control.

MDR1 (P-gp) = test: BBB penetration potential, MDR1-MDCK permeability; assay type: in vitro ADME; settings: dog; for Papp A→B at 120 min, 5 μM: apical to basolateral, pH 7.4, read-out: BBB penetration potential MDCK A-B 10−6 cm/s; for Papp B→A at 120 min, 5 μM: basolateral to apical, pH 7.4, read-out: BBB penetration potential MDCK B-A 10−6 cm/s
Description: BBB penetration potential assessment data in Table 1 was obtained as follows. MDR1-MDCK cell monolayers were grown to confluence on collagen-coated, microporous membranes in 12-well assay plates. Atenolol, propranolol and digoxin were used as control to assess plate quality. The permeability assay buffer was Hanks' balanced salt solution containing 10 mM HEPES and 15 mM glucose at a pH of 7.4. The buffer in the receiver chamber also contained 1% bovine serum albumin. The dosing solution concentration was 5 μM of test article in the assay buffer. Cell monolayers were dosed on the apical side (A-to-B) or basolateral side (B-to-A) and incubated at 37° C. with 5% CO2 in a humidified incubator. Samples were taken from the donor and receiver chambers at 120 minutes. Each determination was performed in duplicate the flux of lucifer yellow was also measured post-experimentally for each monolayer to ensure no damage was inflicted to the cell monolayers during the flux period. All samples were assayed by LC-MS/MS using electrospray ionization using a PE SCIEX API 4000 spectrometer and total run time of 1 min. Analytical method/conditions were: Liquid Chromatography Column: Waters ACQUITY UPLC BEH Phenyl 30×2.1 mm, 1.7 m; M.P. Buffer: 25 mM ammonium formate buffer, pH 3.5; Aqueous Reservoir (A): 90% water, 10% buffer; Organic Reservoir (B): 90% acetonitrile, 10% buffer; Flow Rate: 0.7 mL/minute; gradient program: 99% A (t=0 min), 1% A (t=0.65 min), 1% A (t=0.75 min), 99% A (t=0.8 min), 99% A (t=1 min); 5 μL injection volume
The apparent permeability (Papp) and percent recovery were calculated as follows: Papp=(dCr/dt)×Vr/(A×CA) (1) Percent Recovery=100×((Vr×Cr^final)+(Vd×Cd^final))/(Vd×CN) (2)
wherein: • dCr/dt is the slope of the cumulative concentration in the receiver compartment versus time in μMs^−1; • Vr is the volume of the receiver compartment in cm^3; • Vd is the volume of the donor compartment in cm^3; • A is the area of the insert (1.13 cm^2 for 12-well); • CA is the average of the nominal dosing concentration and the measured 120 minute donor concentration in μM; • CN is the nominal concentration of the dosing solution in μM; • Cr^final is the cumulative receiver concentration in μM at the end of the incubation period; • Cd^final is the concentration of the donor in μM at the end of the incubation period. Efflux ratio (ER) is defined as Papp (B-to-A)/Papp (A-to-B) Interpretation Brain Penetration Potential Classification: • Papp (A-to-B)≥3.0 and ER<3.0: High • Papp (A-to-B)≥3.0 and 10>ER≥3.0: Moderate • Papp (A-to-B)≥3.0 and ER≥10, or Papp (A-to-B)<3.0 Low

Structure (SMILES) | IC50 [1] [µM] | Papp A→B at 120 min, 5 μM (MDR1 (P-gp)) [×10⁻⁶ cm/s] | Papp B→A at 120 min, 5 μM (MDR1 (P-gp)) [×10⁻⁶ cm/s] | EETs Inhibition, % @ 50,000 ([1]; at 50,000 (nM per column head)) | EETs Inhibition, % @ 10 μM ([1]; at 10 μM) [% @ 10 μM]
c1ccc(C2CCN(c3cn[nH]c3)CC2)cc1 [Compound 1, 4-Phenyl-1-(1H-pyrazol-4-yl)piperidine] | > 10 |  |  |  | 
c1ccc(CC2CCN(c3cn[nH]c3)CC2)cc1 [Compound 3, 4-Benzyl-1-(1H-pyrazol-4-yl)piperidine] | > 25 | 62 | 60 |  | 
COc1ccc(C2CCN(c3ccn[nH]3)CC2)cc1 [Compound 19, 4-(4-Methoxyphenyl)-1-(1H-pyrazol-5-yl)piperidine] | > 25 |  |  |  | 
COc1ccc(C2CCN(c3cn[nH]c3)CC2)cc1 [Compound 20, 4-(4-Methoxyphenyl)-1-(1H-pyrazol-4-yl)piperidine] |  | 32 | 25.7 | 3.1%@ 50,000 | 
CC(=O)N(C)c1ccc(C2CCN(c3cn[nH]c3)CC2)cc1 [Compound 28, N-(4-(1-(1H-Pyrazol-4-yl)piperidin-4-yl)phenyl)-N-methylacetamide] |  | 18.4 | 40.2 |  | 

The remaining lines, values ahead:

IC50 [1] [µM] | Papp A→B at 120 min, 5 μM (MDR1 (P-gp)) [×10⁻⁶ cm/s] | Papp B→A at 120 min, 5 μM (MDR1 (P-gp)) [×10⁻⁶ cm/s] | EETs Inhibition, % @ 50,000 ([1]; at 50,000 (nM per column head)) | EETs Inhibition, % @ 10 μM ([1]; at 10 μM) [% @ 10 μM] | Structure (SMILES)
 | 60.1 | 48.6 |  |  | Cc1cccc(C2CCN(c3cn[nH]c3)CC2)c1 [Compound 34, 1-(1H-Pyrazol-4-yl)-4-(m-tolyl)piperidine]
> 50 |  |  |  |  | c1ccc(C2CCN(c3ccn[nH]3)CC2)cc1 [Compound 54, 4-Phenyl-1-(1H-pyrazol-5-yl)piperidine]
> 0.05 | 5.16 | 41.6 |  |  | O=C1CCCN1Cc1ccc(C2CCN(c3cn[nH]c3)CC2)cc1 [Compound 83, 1-(4-(1-(1H-Pyrazol-4-yl)piperidin-4-yl)benzyl)pyrrolidin-2-one]
 | 44.3 | 40 |  | 50 | Clc1ccc(CC2CCN(c3cn[nH]c3)CC2)cc1 [Compound 93, 4-(4-Chlorobenzyl)-1-(1H-pyrazol-4-yl)piperidine]
> 0.05 | 22.2 | 46.9 |  |  | O=C1CCCN1c1ccc(C2CCN(c3cn[nH]c3)CC2)cc1 [Compound 100, 1-(4-(1-(1H-Pyrazol-4-yl)piperidin-4-yl)phenyl)pyrrolidin-2-one]
